Values of other authors in patent publication US6399592B1, “Bishphosphonate/estrogen synergistic therapy for treating and preventing bone loss” (Merck & Co., Inc., priority 1992, dated 2002).

How the values were obtained:
[1] = tested on: bone loss in ovaricetomized rats; details: in combination with estrogen
bone mineralization = details: rats; long term

SMILES	effect on bone loss [1]	effects on bone mineralization (bone mineralization)
O=P([O-])(O)C(O)(Cc1cccnc1)P(=O)(O)O.[Na+] [risendronate, sodium trihydrogen [1-hydroxy-2-(3-pyridinyl)ethylidene]bisphosphonate]	positive effect on bone loss	–
CC(O)(P(=O)([O-])O)P(=O)([O-])O.[Na+].[Na+] [etidronate, (1-hydroxyethylidene)bisphosphonic acid, disodium salt]	–	long term adverse effects on bone mineralization
